Experimental data taken from PMC11436757, “BRCA2 stabilises RAD51 and DMC1 nucleoprotein filaments through a conserved interaction mode” (Nature Communications, 2024).
Entries after “also recorded” stand apart in the source; their conditions may differ. No end group written: not given here.

Experiments:
[1] = system: RAD51 ΔN loop mutant; assay: Amylose pull-down of RAD51 loop mutant with MBP-BRCA2 fusions; settings: RAD51 with DMC1's PhePP-binding loops; MBP-BRCA2 fusion
From the text: (§1) For affinity pulldown experiments, MBP-fusions of BRCA2 fragments (Ex14, amino-acids 2387-2420, Ex14-Tr, amino acids 2401-2414, Ex27, amino acids 3270-3315, BRC4, amino acids 1519-1551) were cloned into pMAT11 vectors[54] and co-expressed with DMC1 ΔN, DMC1 ΔN loop mutant (in which DMC1 amino acids 147-GAGGYPG-153 and 178-NVDHDA-183 were replaced by the cognate sequences of RAD51 148-IDRGGGE-154 and 179-GLSGSD-184), RAD51 ΔN, RAD51 ΔN loop mutant (the reverse switch of DMC1 ΔN loop mutant), and RAD51. MBP-fusions and complexes were purified through amylose affinity chromatography.

[2] = molecular target: T1, DMC1 ΔN (Homo sapiens, UniProt Q14565); assay: Amylose pull-down of DMC1 ΔN with MBP-BRCA2 fusions; format: binding; settings: recombinant co-expression with MBP-BRCA2 fusion
T1 construct: DMC1 ΔN (83-340) were cloned into pHAT4; His6 (TEV-cleavable) (N, cleaved yes); made in house; host or cells: E. coli BL21 (DE3)
T1 sequence (Q14565 83-340): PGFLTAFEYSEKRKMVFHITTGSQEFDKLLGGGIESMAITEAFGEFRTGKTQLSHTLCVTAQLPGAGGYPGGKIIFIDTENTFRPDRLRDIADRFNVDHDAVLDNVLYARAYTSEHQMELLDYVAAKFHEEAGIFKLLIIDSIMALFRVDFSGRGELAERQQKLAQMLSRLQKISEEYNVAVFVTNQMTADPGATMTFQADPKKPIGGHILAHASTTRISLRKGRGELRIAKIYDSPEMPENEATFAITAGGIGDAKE
From the text: as §1

[3] = molecular target: T2, DMC1 ΔN loop mutant (Homo sapiens, UniProt Q14565, A148D/A183D/D180S/D182S/G147I/G149R/G153E/H181G/N178G/P152G/V179L/Y151G); assay: Amylose pull-down of DMC1 ΔN loop mutant with MBP-BRCA2 fusions; format: binding; settings: recombinant co-expression with MBP-BRCA2 fusion
T2 construct: DMC1 ΔN (83-340) were cloned into pHAT4; made in house
T2 sequence (Q14565 83-340 G147I/A148D/G149R/Y151G/P152G/G153E/N178G/V179L/D180S/H181G/D182S/A183D limits assumed): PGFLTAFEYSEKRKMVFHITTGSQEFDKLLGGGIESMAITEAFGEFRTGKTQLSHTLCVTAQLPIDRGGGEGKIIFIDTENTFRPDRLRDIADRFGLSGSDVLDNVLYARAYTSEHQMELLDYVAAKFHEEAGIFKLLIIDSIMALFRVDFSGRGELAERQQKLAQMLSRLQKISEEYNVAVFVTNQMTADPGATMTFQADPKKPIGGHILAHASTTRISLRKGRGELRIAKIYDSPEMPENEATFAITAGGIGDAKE
From the text: as §1

[4] = system: RAD51 ΔN; assay: Amylose pull-down of RAD51 ΔN with MBP-BRCA2 fusions; format: binding; settings: recombinant co-expression with MBP-BRCA2 fusion
From the text: as §1

[5] = molecular target: T1, DMC1 ΔN; assay: Microscale thermophoresis (MST), BRCA2 peptides and DMC1 ΔN; format: binding; settings: for Kd: MST from initial fluorescence, labelled DMC1 ΔN 150 nM, 10 mM HEPES pH 8.0, 150 mM NaCl, 0.05 % Tween-20, ~22 °C, mean, n = 3 independent experiments
Method: DMC1 ΔN and DMC1 ΔN loop mutant were labelled in 10 mM HEPES pH 8.0, 150 mM NaCl with an amine reactive fluorescent dye (MonolithTM Protein Labelling Kit BLUE-NHS, Nanotemper GmbH). A serial dilution of titrant (peptide) was prepared in 10 mM HEPES pH 8.0, 150 mM NaCl, 0.05 % Tween-20. The concentration of labelled DMC1 ΔN or DMC1 ΔN loop mutant were constant at 150 nM and the concentration of the interacting peptide was titrated in 1:1 dilutions starting from 750 µM. An equal volume (10 µl) of the serial dilution and of the diluted labelled DMC1 were mixed and loaded in glass capillaries (MonolithTM NT.115 MST Premium Coated Capillaries, Nanotemper GmbH). The initial fluorescence and the thermophoretic mobility were measured on a Monolith NT.115 system (NanoTemper Technologies). The excitation power was 45 % and MST power was 60 % at room temperature (~22 °C). Laser on and off times were set at 5 and 30 seconds, respectively. Data analysis was performed with NT Affinity Analysis software.
As a change in initial fluorescence was detected, SDS denaturation (SD) tests were performed according to the manufacturer’s instructions to determine whether these changes were ligand-induced and whether the data could therefore be used to derive affinity measurements. Briefly, 7 µl of the samples containing the three highest and three lowest concentrations of peptide were mixed with 7 µl of denaturation buffer (4 % SDS, 40 mM DTT). After incubating each for 5 minutes at 95 °C to denature the proteins and subject to brief centrifugation, the samples were loaded onto Premium Coated Capillaries and their initial fluorescence measurements recorded. […] Initial fluorescence readings were used to derive binding affinities.

binding in pull-down [1] | binding in pull-down [2] | Kd [5] [µM] | affinity of Ex14 relative to Ex27 ([5]; MST, DMC1 ΔN) | Substance | binding in pull-down [3] | binding in pull-down [4]
failed to | bind | 30.4 | over threefold higher affinity than Ex27 | ATRNEKMRHLITTGRPTKVFVPPFKTKSHFHRVE [Ex14] | abolished its ability to bind Ex14; also recorded: blocked Ex14- | binds selectively to BRCA2 Ex27 rather than Ex14
failed to | not | > 96.2 |  | Ex27: BRCA2 exon 27 PhePP peptide, amino acids 3270-3315 (ALDFLSRLPLPPPVSPICTFVSPAAQKAFQPPRSCGTKYETPIKKK; UniProt P51587 3270-3315, looked up, fragment) | failed to bind; also recorded: failed to interact with Ex27 | binds selectively
